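Exposure lasted 48 hours, with cells grown in 96-well plates and compounds tested at five concentrations. TGI is the concentration that stops growth completely.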
Key:
Test in all cases: NCI-60 cell line screen, 48 h
SK-OV-3 ovarian = tested on: SK-OV-3 ovarian
HL-60(TB) leukemia = tested on: HL-60(TB) leukemia
EKVX NSCLC = tested on: EKVX NSCLC
NCI-H226 lung = tested on: NCI-H226 lung
MDA-MB-435 = tested on: MDA-MB-435
MCF7 breast = tested on: MCF7 breast
OVCAR-5 ovarian = tested on: OVCAR-5 ovarian
SN12C renal = tested on: SN12C renal
K-562 leukemia = tested on: K-562 leukemia
SF-268 CNS = tested on: SF-268 CNS
LOX IMVI melanoma = tested on: LOX IMVI melanoma
ACHN renal = tested on: ACHN renal
SF-295 CNS = tested on: SF-295 CNS
HCT-116 colon = tested on: HCT-116 colon
U251 CNS = tested on: U251 CNS
HS 578T breast = tested on: HS 578T breast
NCI/ADR-RES ovarian = tested on: NCI/ADR-RES ovarian
786-0 renal = tested on: 786-0 renal
DU-145 prostate = tested on: DU-145 prostate
A549 NSCLC = tested on: A549 NSCLC
BT-549 breast = tested on: BT-549 breast
OVCAR-3 ovarian = tested on: OVCAR-3 ovarian
UO-31 renal = tested on: UO-31 renal
SR leukemia = tested on: SR leukemia
SK-MEL-28 melanoma = tested on: SK-MEL-28 melanoma
SW-620 colon = tested on: SW-620 colon
HOP-92 NSCLC = tested on: HOP-92 NSCLC
PC-3 prostate = tested on: PC-3 prostate
UACC-257 melanoma = tested on: UACC-257 melanoma
HCT-15 colon = tested on: HCT-15 colon
HT29 colon = tested on: HT29 colon
NCI-H23 lung = tested on: NCI-H23 lung
MDA-MB-231 breast = tested on: MDA-MB-231 breast
MDA-N = tested on: MDA-N
NCI-H522 lung = tested on: NCI-H522 lung
M14 melanoma = tested on: M14 melanoma
COLO 205 colon = tested on: COLO 205 colon
HCC-2998 colon = tested on: HCC-2998 colon
CAKI-1 renal = tested on: CAKI-1 renal
MOLT-4 leukemia = tested on: MOLT-4 leukemia
KM12 colon = tested on: KM12 colon
SK-MEL-5 melanoma = tested on: SK-MEL-5 melanoma
TK-10 renal = tested on: TK-10 renal
OVCAR-8 ovarian = tested on: OVCAR-8 ovarian
CCRF-CEM leukemia = tested on: CCRF-CEM leukemia
SK-MEL-2 melanoma = tested on: SK-MEL-2 melanoma
RPMI-8226 leukemia = tested on: RPMI-8226 leukemia
SF-539 CNS = tested on: SF-539 CNS
NCI-H460 lung = tested on: NCI-H460 lung
IGROV1 ovarian = tested on: IGROV1 ovarian
OVCAR-4 ovarian = tested on: OVCAR-4 ovarian
UACC-62 melanoma = tested on: UACC-62 melanoma
SNB-19 CNS = tested on: SNB-19 CNS
A498 renal = tested on: A498 renal
SNB-75 CNS = tested on: SNB-75 CNS
RXF 393 renal = tested on: RXF 393 renal
MALME-3M melanoma = tested on: MALME-3M melanoma
HOP-62 NSCLC = tested on: HOP-62 NSCLC

CC1CCOc2ccc(cc2)C=Nc2ccc(cc2)-c2ccc(cc2)N=Cc2ccc(cc2)OCC1 (stereo not given) showed a TGI (SK-OV-3 ovarian) of over 100 µM, a TGI (HL-60(TB) leukemia) of over 100 µM and a TGI (EKVX NSCLC) of over 100 µM. For the same compound, the TGI (NCI-H226 lung) was over 100 µM, the TGI (MDA-MB-435) was over 100 µM and the TGI (MCF7 breast) was over 100 µM. The TGI (OVCAR-5 ovarian) was over 100 µM, the TGI (SN12C renal) was over 100 µM and the TGI (K-562 leukemia) was over 100 µM. The TGI (SF-268 CNS) was over 100 µM, the TGI (LOX IMVI melanoma) was over 100 µM and the TGI (ACHN renal) was over 100 µM. It also gave a TGI (SF-295 CNS) of over 100 µM, a TGI (HCT-116 colon) of over 100 µM and a TGI (U251 CNS) of over 100 µM. For the same compound, the TGI (HS 578T breast) was over 100 µM, the TGI (NCI/ADR-RES ovarian) was over 100 µM and the TGI (786-0 renal) was over 100 µM. The TGI (DU-145 prostate) was over 100 µM, the TGI (A549 NSCLC) was over 100 µM and the TGI (BT-549 breast) was over 100 µM. The TGI (OVCAR-3 ovarian) was over 100 µM, the TGI (UO-31 renal) was over 100 µM and the TGI (SR leukemia) was over 100 µM. The TGI (SK-MEL-28 melanoma) was over 100 µM, the TGI (SW-620 colon) was over 100 µM and the TGI (HOP-92 NSCLC) was over 100 µM. For the same compound, the TGI (PC-3 prostate) was over 100 µM, the TGI (UACC-257 melanoma) was over 100 µM and the TGI (HCT-15 colon) was over 100 µM. The TGI (HT29 colon) was over 100 µM, the TGI (NCI-H23 lung) was over 100 µM and the TGI (MDA-MB-231 breast) was over 100 µM. It also gave a TGI (MDA-N) of over 100 µM, a TGI (NCI-H522 lung) of over 100 µM and a TGI (M14 melanoma) of over 100 µM. The TGI (COLO 205 colon) was over 100 µM, the TGI (HCC-2998 colon) was over 100 µM and the TGI (CAKI-1 renal) was over 100 µM. The TGI (MOLT-4 leukemia) was over 100 µM, the TGI (KM12 colon) was over 100 µM and the TGI (SK-MEL-5 melanoma) was over 100 µM. The TGI (TK-10 renal) was over 100 µM, the TGI (OVCAR-8 ovarian) was over 100 µM and the TGI (CCRF-CEM leukemia) was over 100 µM. It also gave a TGI (SK-MEL-2 melanoma) of over 100 µM, a TGI (RPMI-8226 leukemia) of over 100 µM and a TGI (SF-539 CNS) of over 100 µM. It also gave a TGI (NCI-H460 lung) of over 100 µM, a TGI (IGROV1 ovarian) of over 100 µM and a TGI (OVCAR-4 ovarian) of over 100 µM.
With N#Cc1ccc(C2Oc3ccc(Cl)cc3C=C2[N+](=O)[O-])cc1 (stereo not given) the TGI (SK-OV-3 ovarian) was 5.57 µM, the TGI (HL-60(TB) leukemia) was 3.91 µM and the TGI (EKVX NSCLC) was 3.42 µM. The TGI (NCI-H226 lung) was 29.6 µM, the TGI (MDA-MB-435) was 3.56 µM and the TGI (MCF7 breast) was 3.14 µM. It also gave a TGI (UACC-62 melanoma) of 3.09 µM, a TGI (OVCAR-5 ovarian) of 3.98 µM and a TGI (SNB-19 CNS) of 6.58 µM. For the same compound, the TGI (K-562 leukemia) was 2.04 µM, the TGI (SF-268 CNS) was 4.16 µM and the TGI (LOX IMVI melanoma) was 3.02 µM. It also gave a TGI (ACHN renal) of 3.06 µM, a TGI (A498 renal) of 6.31 µM and a TGI (SF-295 CNS) of 9.15 µM. For the same compound, the TGI (HCT-116 colon) was 0.987 µM, the TGI (U251 CNS) was 3.31 µM and the TGI (HS 578T breast) was 47.6 µM. It also gave a TGI (NCI/ADR-RES ovarian) of over 100 µM, a TGI (DU-145 prostate) of 6.07 µM and a TGI (A549 NSCLC) of 3.3 µM. The TGI (BT-549 breast) was 1.13 µM, the TGI (SNB-75 CNS) was 2.83 µM and the TGI (OVCAR-3 ovarian) was 3.04 µM. It also gave a TGI (UO-31 renal) of 2.99 µM, a TGI (SR leukemia) of 1.61 µM and a TGI (SK-MEL-28 melanoma) of 3.31 µM. The TGI (HOP-92 NSCLC) was 2.83 µM, the TGI (PC-3 prostate) was 3.37 µM and the TGI (UACC-257 melanoma) was 6.75 µM. It also gave a TGI (HCT-15 colon) of 4.12 µM, a TGI (HT29 colon) of 7.89 µM and a TGI (RXF 393 renal) of 9.86 µM. It also gave a TGI (NCI-H23 lung) of 3.23 µM, a TGI (MDA-MB-231 breast) of 3.63 µM and a TGI (MDA-N) of 3.19 µM. It also gave a TGI (NCI-H522 lung) of 2.92 µM, a TGI (MALME-3M melanoma) of 4.79 µM and a TGI (M14 melanoma) of 2.73 µM. The TGI (COLO 205 colon) was 1.87 µM, the TGI (HCC-2998 colon) was 3.21 µM and the TGI (CAKI-1 renal) was 2.96 µM. The TGI (MOLT-4 leukemia) was 4.24 µM, the TGI (KM12 colon) was 3.81 µM and the TGI (SK-MEL-5 melanoma) was 2.68 µM. The TGI (TK-10 renal) was 3.38 µM, the TGI (CCRF-CEM leukemia) was 1.03 µM and the TGI (SK-MEL-2 melanoma) was 4.09 µM. For the same compound, the TGI (RPMI-8226 leukemia) was 1.25 µM, the TGI (SF-539 CNS) was 3.84 µM and the TGI (NCI-H460 lung) was 5.18 µM. It also gave a TGI (HOP-62 NSCLC) of 3.8 µM, a TGI (IGROV1 ovarian) of 3.11 µM and a TGI (OVCAR-4 ovarian) of 3.45 µM.

— PubChem BioAssay (NCI)
